We go through one compound from patent US6803186B2, “Compositions and methods for increasing amino acid absorption in mammals” (The IAMS Company, priority 2001, dated 2004).

Square brackets hold non-standard residues; d marks the D form. Peptide text beside a SMILES is read from it. Sar = CNCC(=O)O

The target of test [1] is T1, canine PepT1 (cPepT1) (Canis lupus familiaris, UniProt Q8WMX5).
T1 construct: endogenous in cells; host or cells: MDCK (Madin-Darby Canine Kidney) cells, whole-cell [3H]-GlySar uptake
T1 sequence (Q8WMX5 1-708): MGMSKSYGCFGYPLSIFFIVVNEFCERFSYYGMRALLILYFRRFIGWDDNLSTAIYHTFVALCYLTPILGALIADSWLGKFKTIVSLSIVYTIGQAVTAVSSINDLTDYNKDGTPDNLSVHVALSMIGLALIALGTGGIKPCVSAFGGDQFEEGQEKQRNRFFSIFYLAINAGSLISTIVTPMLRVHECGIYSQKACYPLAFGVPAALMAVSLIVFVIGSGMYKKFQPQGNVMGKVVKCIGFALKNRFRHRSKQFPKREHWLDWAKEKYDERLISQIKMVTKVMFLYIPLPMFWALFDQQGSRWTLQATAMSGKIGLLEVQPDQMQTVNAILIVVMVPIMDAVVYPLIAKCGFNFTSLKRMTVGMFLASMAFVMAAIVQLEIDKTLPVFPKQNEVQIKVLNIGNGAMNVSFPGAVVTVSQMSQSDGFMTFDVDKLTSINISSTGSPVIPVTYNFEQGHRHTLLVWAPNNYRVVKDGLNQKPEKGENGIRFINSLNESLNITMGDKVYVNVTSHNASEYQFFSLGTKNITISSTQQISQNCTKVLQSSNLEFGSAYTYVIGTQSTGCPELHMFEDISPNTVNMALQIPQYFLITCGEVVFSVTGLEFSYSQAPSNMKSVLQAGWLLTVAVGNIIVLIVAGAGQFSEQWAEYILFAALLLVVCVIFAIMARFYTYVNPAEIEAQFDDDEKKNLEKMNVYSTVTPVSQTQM
In words: Substrate regulation of H+-dependent GlySar uptake capacity of MDCK cells cultured in DMEM (Example 3, Trials 1 and 2). It counts as cell-based. The settings on record: 10 mM in DMEM, 24 h of culture. On the procedure:
All cells were plated (60,000/2 cm^2 well) and cultured (95% air/5% CO2, 37° C.) for 24 h in Dulbecco's Modified Eagle Media/10% fetal calf serum (FCS)/1%Antibiotic/Antimicrobial solution (ABAM) (DMEM media). Following these initial common culture conditions, cells then were cultured in DMEM, or DMEM that contained 10 mM of Camosine, GlyPhe, Phe, or Gly. Media were changed every 24 h. Media treatments (n=8) were as follows:
The measurement of [^3H]Glysarcosine uptake was performed by using a 24-well cluster tray method (Kilberg M S. Measurement of amino acid transport by hepatocytes in suspension and monolayer culture. Methods Enzym 1989; 173:564-575. Matthews J C, Aslanian A, McDonald K K, Yang W, Malandro M S, Novak D A, Kilberg M S. An expression system for mammalian amino acid transport using a stably maintained episomal vector. Anal Biochem 1997; 254:208-214), and used in Examples 1 and 2. Cells were cultured for 30 min in air at 37° C. in depletion medium (25 mM Hepes/Tris (pH 7.5), 140 mM NaCl, 5.4 mM KCl, 1.8 mM CaCl2, 0.8 mM MgSO4, and 5 mM glucose), to normalize intracellular nutrient pools before transport. The transport assays are initiated by replacing depletion medium with uptake medium (Depletion medium adjusted to pH 6.0) that contained 100 μM GlySar (5 μCi/mL, with [^3H]-GlySar supplying 2.88% of total GlySar). After a 30 minute incubation period, transport was terminated with four rinses of 4° C. depletion medium (pH 7.5). Two hundred and twenty μL of 10% trichloroacetic acid was added to each well, and the radioactivity of the supernatant quantified by liquid scintillation counting. The cells of each well are solubilized in 0.2 N NaOH/0.2% SDS and the protein quantified by using the modified Lowry assay, using bovine serum as a standard. Id. Peptide uptake will be reported as pmol* mg^−1 protein* 30 min^−1. Uptake measurements were taken after 24, 48, and 72 hours of culture in treatment media.
The MDCK cell line was maintained as described previously in the Methods section of Trial 1. […]

The target of test [2] is T2, PepT1-expressing Caco-2 cells (Homo sapiens, UniProt P46059).
T2 construct: GlySar uptake by the PepT1-expressing Caco-2 cells; host or cells: Caco-2 cells
T2 sequence (P46059 1-708): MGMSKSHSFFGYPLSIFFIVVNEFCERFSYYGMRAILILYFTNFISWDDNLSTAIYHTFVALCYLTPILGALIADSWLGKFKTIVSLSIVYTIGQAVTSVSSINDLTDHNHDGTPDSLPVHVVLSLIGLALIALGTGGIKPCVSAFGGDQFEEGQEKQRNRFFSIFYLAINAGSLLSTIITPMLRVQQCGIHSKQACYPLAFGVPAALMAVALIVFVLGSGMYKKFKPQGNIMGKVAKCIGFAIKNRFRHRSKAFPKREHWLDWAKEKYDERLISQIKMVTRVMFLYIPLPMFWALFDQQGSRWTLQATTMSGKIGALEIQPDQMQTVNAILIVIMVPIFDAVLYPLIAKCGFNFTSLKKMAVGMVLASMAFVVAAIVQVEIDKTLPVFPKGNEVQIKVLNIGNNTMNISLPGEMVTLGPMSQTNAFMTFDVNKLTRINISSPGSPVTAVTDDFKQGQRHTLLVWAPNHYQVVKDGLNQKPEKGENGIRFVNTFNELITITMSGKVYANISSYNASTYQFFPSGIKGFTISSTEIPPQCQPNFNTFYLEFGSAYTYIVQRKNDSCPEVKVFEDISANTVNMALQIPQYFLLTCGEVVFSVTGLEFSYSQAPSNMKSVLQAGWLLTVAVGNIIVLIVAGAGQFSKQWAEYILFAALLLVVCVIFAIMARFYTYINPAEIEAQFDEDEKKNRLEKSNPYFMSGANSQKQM
The note with it: read-out: reported Km for GlySar uptake; cited from earlier work.

Turning to `CN(CC(=O)O)C(=O)CN` [GlySar, glycylsarcosine] (H-Gly-[Sar]-OH), in test [1], the “increase in GlySar uptake capacity over DMEM control media” value is reported as “about 30%”. The Km (in general, the concentration of substrate that gives half-maximal velocity) in test [2] was 1100 µM.
